# Laboratory results as given in EPA's ToxValDB 9.5 (doi:10.2903/j.efsa.2019.5842).
# Assays:
# [1] = test system: Oncorhynchus mykiss; experiment: LC10; higher = less toxic; details: chronic/long-term; mortality
# [2] = test system: Daphnia magna; details: chronic/long-term; duration: 21 days; reproduction
# [3] = test system: Apis mellifera; details: acute, mortality
# [4] = test system: Colinus virginianus
# [5] = test system: Folsomia candida; details: chronic/long-term; duration: 28 days; reproduction
# [6] = test system: Hyalella azteca; details: chronic/long-term; duration: 42 days
# [7] = test system: Oncorhynchus mykiss; details: acute; duration: 96 hours; mortality
# [8] = test system: Tagia sp.; details: chronic/long-term; duration: 56 days; reproduction
# [9] = test system: Rattus norvegicus
# [10] = test system: Oryctolagus sp.; details: reproduction developmental; body weight
smiles,measurement,setting,value
CCCCN(CC)c1c([N+](=O)[O-])cc(C(F)(F)F)cc1[N+](=O)[O-] [Benfluralin],LC10,[1],0.0013 µg/mL
same,NOEC,[2],0.046 mg/L
same,LD50,[3]; dermal,> 100 µg/piece
same,LD50,"[3]; oral, unspecified",> 111 µg/piece
same,LD50,"[4]; acute, oral, mortality",> 2000 mg/kg-day
same,NOEL,[4]; reproduction developmental,6.7 mg/kg-day
same,NOEC,[5],5.5 mg/kg
same,NOEC,[6],83 mg/kg
same,LC50,[7],0.081 µg/mL
same,NOEC,[8],15.4 mg/kg
same,LD50,"[9]; acute, oral, mortality",> 5000 mg/kg-day
same,NOAEL,"[9]; chronic, duration: 2 years, histopathology: nonneoplastic",0.5 mg/kg-day
same,NOAEL,"[9]; reproduction developmental, body weight",5.5 mg/kg-day
same,NOAEL,[10],50 mg/kg-day
